From patent US20230332232A1, “COMPOSITIONS AND METHODS FOR DIAGNOSING AND TREATING A DYSTONIA” (Duke University, priority 2020, published 2023)

Test system: DYT1 knockin (Tor1a^delGAG/+) murine embryonic fibroblasts (MEFs)
Assay: microRNA-seq of EVs from DYT1 MEFs treated with drug, compared with non-treated DYT1 MEFs
Type: cell-based, mouse
Conditions: for Sal Direction Opposite ISRIB?: EVs of DYT1 (Het) MEFs
Description: In addition to proteomic analysis, total RNA-seq and microRNA-seq was performed on RNA isolated in parallel from the EV samples of Cohort 2. As with the proteomic analysis, one biological replicate was prepared from 3 distinct biological clonal cell lines for each genotype. Here, EVs were isolated from conditioned cell culture media by 18 hour ultracentrifugation at 100,000 g. RNA was extracted using the Qiagen miRNeasy Micro Kit (Cat. No. 217084) according to the manufacturer's protocol. Two RNA fractions were extracted from each sample, one enriched in coding and non-coding RNA species>200 nt (“Total RNA” fraction) and one enriched for small RNAs<200 nt (“miRNA” fraction). RNA samples were then submitted to the Duke Sequencing and Genomic Technologies shared resource for further quality control and sequencing. Samples were assessed for concentration and integrity by Qubit and Fragment Analyzer. The miRNA fractions were 4.16 ng/μL-47.57 ng/μL and total RNA fractions were 3.8 ng/μL-43.6 ng/μL. The small RNA library was prepared using the QIAseq miRNA Library Kit (Cat No./ID: 331505) and sequenced on the Illumina NextSeq 500 High-Output platform with 75 bp single-reads. The total RNA library was prepared using the Illumina TruSeq Stranded Total RNA-seq Kit with Ribozero Gold ribosomal RNA reduction and sequenced on the Illumina NovaSeq 6000 S1 platform with 100 bp paired-end reads. Sequencer lane pooling and read depth are attached in the Excel data summary (See “RNA QC” Tab). Data processing and analysis were performed in collaboration with the Duke Genomic Analysis and Bioinformatics shared resource. RNA-seq data was processed using the TrimGalore toolkit (http://www.bioinformatics.babraham.ac.uk/projects/trim_galore), which employs Cutadapt(Martin M. (2011) EMBnet.journal. 17(1):10-12) to trim low quality bases and Illumina sequencing adapters from the 3' end of the reads. Only reads that were 20 nt or longer after trimming were kept for further analysis. Reads were mapped to the mouse genome and transcriptome ([…], et al. (2012) Nucleic Acids Res. 40(Database issue):[…]-97) using the STAR RNA-seq alignment tool (Dobin A, et al. (2013). Bioinformatics. 29(1):15-21). If the reads mapped to a single genomic location, then they were kept for subsequent analysis. Gene counts were compiled using the HTSeq tool (http://www-huber.embl.de/users/anders/HTSeq/). Only genes that had at least 10 reads in any given library were used in subsequent analysis. Normalization and differential expression was carried out using the DESeq26 Bioconductor (Huber W, et al. (2015) Nat Methods. 12(2):115-121) package with the R statistical programming environment (www.r-project.org). […] 694 miRNAs were initially examined with respect to QC, genotype, RTV effects, and ISRIB effects. This subset was the “Full miRNA” subset. FIG. 9A and FIG. 9B show the RTV effect on EV composition in DYT1 cells compared to WT cells for 279 miRNAs, respectively. […] Beginning with the 694 miRNAs in the “Full miRNA” subset, more than 60 molecules were detected in either WT cells or DYT1 cells (WT or Het UMI>60). […] The candidate miRNAs were ranked by the sum of genotype-dependent absolute Z-scores and RTV-induced absolute Z-scores (Abs Z Score Sum (Geno+RTV)). This subset was the “miRNA-Ritonavir Therapeutic Efficacy” subset and contained 201 miRNAs.

[1] = SAL-treated vs non-treated DYT1 (Het) MEF EVs

SMILES: O=C(/C=C/c1ccccc1)NC(NC(=S)Nc1cccc2cccnc12)C(Cl)(Cl)Cl (centres unmarked) [SAL, Salubrinal]
- mmu-miR-147-5p: SALvHet Z Score [1]: −0.16
- mmu-miR-181a-1-3p: SALvHet Z Score [1]: −0.12
- mmu-miR-181a-1-3p: Sal Direction Opposite ISRIB? [1]: yes
- mmu-miR-331-5p: SALvHet Z Score [1]: 0.66
- mmu-miR-668-3p: SALvHet Z Score [1]: 0.34
- mmu-miR-1930-5p: SALvHet Z Score [1]: −1.60
- mmu-miR-1943-5p: SALvHet Z Score [1]: −0.08
- mmu-miR-1955-5p: SALvHet Z Score [1]: 1.06
- mmu-miR-3072-5p: SALvHet Z Score [1]: 0.00
- mmu-miR-3076-3p: SALvHet Z Score [1]: 0.00
- mmu-miR-3088-3p: SALvHet Z Score [1]: −1.34
- mmu-miR-6936-3p: SALvHet Z Score [1]: −0.71
- mmu-miR-6936-3p: Sal Direction Opposite ISRIB? [1]: yes
- mmu-miR-7224-3p: SALvHet Z Score [1]: 0.30
- mmu-miR-7224-3p: Sal Direction Opposite ISRIB? [1]: yes
- mmu-miR-467d-3p: SALvHet Z Score [1]: −0.01
- SALvHet Z Score (mmu-let-7a-1-3p): 0.28
- SALvHet Z Score (mmu-let-7c-2-3p): 0.28
- SALvHet Z Score (mmu-let-7g-5p): −0.16
- SALvHet Z Score (mmu-let-7i-3p): 0.35
- Sal Direction Opposite ISRIB? (mmu-miR-30e-5p): yes
- SALvHet Z Score (mmu-miR-30e-3p): −0.06
- SALvHet Z Score (mmu-miR-15a-5p): 0.17
- SALvHet Z Score (mmu-miR-16-5p): −0.01
- SALvHet Z Score (mmu-miR-17-3p): 0.10
- Sal Direction Opposite ISRIB? (mmu-miR-19b-3p): yes
- SALvHet Z Score (mmu-miR-22-3p): 0.17
- Sal Direction Opposite ISRIB? (mmu-miR-22-3p): yes
- SALvHet Z Score (mmu-miR-23a-3p): 0.05
- SALvHet Z Score (mmu-miR-25-3p): −0.04
- Sal Direction Opposite ISRIB? (mmu-miR-26b-Sp): yes
- SALvHet Z Score (mmu-miR-29b-3p): 0.38
- SALvHet Z Score (mmu-miR-29c-3p): 0.40
- SALvHet Z Score (mmu-miR-30a-5p): −0.09
- SALvHet Z Score (mmu-miR-30b-5p): 0.15
- SALvHet Z Score (mmu-miR-30c-5p (1st line so named)): 0.42
- SALvHet Z Score (mmu-miR-30c-5p (2nd line so named)): 0.07
- Sal Direction Opposite ISRIB? (mmu-miR-30c-5p): yes
- SALvHet Z Score (mmu-miR-31-3p): −0.03
- SALvHet Z Score (mmu-miR-31-5p): −0.14
- SALvHet Z Score (mmu-miR-32-5p): 0.26
- SALvHet Z Score (mmu-miR-33-5p): 0.26
- SALvHet Z Score (mmu-miR-34a-5p): −0.03
- SALvHet Z Score (mmu-miR-34b-5p): 0.38
- SALvHet Z Score (mmu-miR-34c-3p): −0.37
- SALvHet Z Score (mmu-miR-34c-5p): 0.07
- Sal Direction Opposite ISRIB? (mmu-miR-34c-5p): yes
- SALvHet Z Score (mmu-miR-96-5p): 0.13
- Sal Direction Opposite ISRIB? (mmu-miR-96-5p): yes
- SALvHet Z Score (mmu-miR-98-5p): −0.22
- SALvHet Z Score (mmu-miR-99a-5p): −0.17
- SALvHet Z Score (mmu-miR-101b-3p): 0.64
- SALvHet Z Score (mmu-miR-106b-3p): −0.23
- SALvHet Z Score (mmu-miR-106b-5p): 0.04
- SALvHet Z Score (mmu-miR-124-3p): −0.72
- SALvHet Z Score (mmu-miR-125b-1-3p): −0.41
- SALvHet Z Score (mmu-miR-130b-3p): 0.32
- Sal Direction Opposite ISRIB? (mmu-miR-130b-3p): yes
- Sal Direction Opposite ISRIB? (mmu-miR-135a-5p): yes
- SALvHet Z Score (mmu-miR-136-3p): 0.08
- SALvHet Z Score (mmu-miR-140-3p): 0.50
- Sal Direction Opposite ISRIB? (mmu-miR-140-3p): yes
- SALvHet Z Score (mmu-miR-146a-5p): 0.02
- SALvHet Z Score (mmu-miR-148a-3p): −0.02
- SALvHet Z Score (mmu-miR-148b-3p): −0.07
- SALvHet Z Score (mmu-miR-149-5p): 0.03
- SALvHet Z Score (mmu-miR-151-5p): 0.12
- SALvHet Z Score (mmu-miR-152-3p): −0.02
- SALvHet Z Score (mmu-miR-181a-5p): −0.23
- SALvHet Z Score (mmu-miR-181b-5p): −0.32
- SALvHet Z Score (mmu-miR-181c-5p): 0.26
- SALvHet Z Score (mmu-miR-182-5p): 0.01
- Sal Direction Opposite ISRIB? (mmu-miR-182-5p): yes
- SALvHet Z Score (mmu-miR-183-5p): −0.06
- SALvHet Z Score (mmu-miR-185-5p): 0.15
- SALvHet Z Score (mmu-miR-186-5p): 0.00
- SALvHet Z Score (mmu-miR-187-3p): 0.30
- Sal Direction Opposite ISRIB? (mmu-miR-187-3p): yes
- SALvHet Z Score (mmu-miR-188-5p): −0.05
- SALvHet Z Score (mmu-miR-190b-5p): 0.15
- SALvHet Z Score (mmu-miR-191-5p): 0.04
- SALvHet Z Score (mmu-miR-192-5p): 0.09
- Sal Direction Opposite ISRIB? (mmu-miR-192-5p): yes
- SALvHet Z Score (mmu-miR-194-5p): 0.18
- SALvHet Z Score (mmu-miR-199a-3p): −0.10
- SALvHet Z Score (mmu-miR-199b-3p): −0.10
- SALvHet Z Score (mmu-miR-206-3p): −0.27
- SALvHet Z Score (mmu-miR-214-5p): 0.04
- SALvHet Z Score (mmu-miR-219a-5p): 0.34
- SALvHet Z Score (mmu-miR-223-3p): −0.01
- SALvHet Z Score (mmu-miR-224-5p): −0.27
- SALvHet Z Score (mmu-miR-296-3p): 0.05
- Sal Direction Opposite ISRIB? (mmu-miR-296-3p): yes
- SALvHet Z Score (mmu-miR-298-5p): 0.16
- Sal Direction Opposite ISRIB? (mmu-miR-298-5p): yes
- SALvHet Z Score (mmu-miR-299a-3p): 0.39
- SALvHet Z Score (mmu-miR-301a-3p): 0.35
- SALvHet Z Score (mmu-miR-301b-3p): 0.01
- SALvHet Z Score (mmu-miR-320-3p): −0.21
- SALvHet Z Score (mmu-miR-322-5p): −0.07
- SALvHet Z Score (mmu-miR-324-3p): 0.16
- SALvHet Z Score (mmu-miR-335-Sp): −0.35
- SALvHet Z Score (mmu-miR-340-5p): 0.31
- SALvHet Z Score (mmu-miR-344-3p): 0.44
- Sal Direction Opposite ISRIB? (mmu-miR-344-3p): yes
- SALvHet Z Score (mmu-miR-350-3p): 0.08
- SALvHet Z Score (mmu-miR-361-5p): −0.15
- SALvHet Z Score (mmu-miR-362-3p): 0.47
- Sal Direction Opposite ISRIB? (mmu-miR-362-3p): yes
- SALvHet Z Score (mmu-miR-362-5p): −0.10
- SALvHet Z Score (mmu-miR-378a-3p): −0.12
- SALvHet Z Score (mmu-miR-450a-5p): 0.09
- SALvHet Z Score (mmu-miR-450b-3p): −0.29
- SALvHet Z Score (mmu-miR-451a): 0.38
- SALvHet Z Score (mmu-miR-483-5p): −1.22
- SALvHet Z Score (mmu-miR-500-3p): 0.10
- SALvHet Z Score (mmu-miR-503-3p): −0.70
- SALvHet Z Score (mmu-miR-532-5p): −0.06
- SALvHet Z Score (mmu-miR-542-3p): 0.33
- SALvHet Z Score (mmu-miR-542-5p): 0.39
- Sal Direction Opposite ISRIB? (mmu-miR-542-5p): yes
- SALvHet Z Score (mmu-miR-582-3p): −0.45
- SALvHet Z Score (mmu-miR-652-3p): 0.34
- SALvHet Z Score (mmu-miR-671-5p): 0.26
- Sal Direction Opposite ISRIB? (mmu-miR-671-5p): yes
- SALvHet Z Score (mmu-miR-700-3p): 0.16
- SALvHet Z Score (mmu-miR-708-5p): 0.58
- SALvHet Z Score (mmu-miR-872-5p): 0.19
- SALvHet Z Score (mmu-miR-1291): −0.06
- SALvHet Z Score (mmu-miR-1843a-5p): 0.07
- SALvHet Z Score (mmu-miR-3102-3p): 0.35
- SALvHet Z Score (mmu-miR-3535): −0.66
- SALvHet Z Score (mmu-miR-5121): 0.22
- Sal Direction Opposite ISRIB? (mmu-miR-5121): yes
- Sal Direction Opposite ISRIB? (mmu-miR-30h-5p): yes
- SALvHet Z Score (mmu-miR-30d-5p): −0.11
- SALvHet Z Score (mmu-miR-344d-3p): −1.00
